Results published in US10131652B2, “Pyrimidinyloxy benzene derivatives as herbicides” (E. I. DU PONT DE NEMOURS AND COMPANY, priority 2014, dated 2018).

Experiments:
Assay in all cases: Test F pre-/postemergence plant response
Type in all cases: in vivo
Conditions in all cases: scale 0 to 100
[1] = tested on: goosegrass (Eleusine indica)
Method in brief: (§1)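 Values are visual ratings, where 100 is complete control and 0 is no effect, given after 14 to 21 days of greenhouse growth. Test chemicals in a non-phytotoxic, surfactant-containing solvent were sprayed on soil just after planting or on emerged seedlings at the 1- to 4-leaf stage.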

kochia (Kochia scoparia) = tested on: kochia (Kochia scoparia)
Method in brief: as §1

[2] = tested on: velvetleaf (Abutilon theophrasti)
Method in brief: as §1

[3] = tested on: Italian ryegrass (Lolium multiflorum)
Method in brief: as §1

[4] = tested on: nightshade (eastern black nightshade, Solanum ptycanthum)
Method in brief: as §1

[5] = tested on: hairy beggarticks (Bidens pilosa)
Method in brief: as §1

[6] = tested on: field bindweed (Convolvulus arvensis)
Method in brief: as §1

[7] = tested on: lambsquarters (Chenopodium album)
Method in brief: as §1

[8] = tested on: yellow nutsedge (Cyperus esculentus)
Method in brief: as §1

Cc1cc(-c2ccccc2Oc2ncc(Cl)cn2)on1 [Compound 58]
Plant response rating, Goosegrass ([1]; 8 g ai/ha Preemergence): 0
Plant response rating, Goosegrass ([1]; 16 g ai/ha Preemergence): 0
Plant response rating, Goosegrass ([1]; 31 g ai/ha Preemergence): 5
Plant response rating, Goosegrass ([1]; 125 g ai/ha Preemergence): 75
Plant response rating, Goosegrass ([1]; Preemergence): 5
Plant response rating, Kochia (kochia (Kochia scoparia); 8 g ai/ha Postemergence): 30
Plant response rating, Kochia (kochia (Kochia scoparia); 8 g ai/ha Preemergence): 0
Plant response rating, Kochia (kochia (Kochia scoparia); 16 g ai/ha Postemergence): 40
Plant response rating, Kochia (kochia (Kochia scoparia); 16 g ai/ha Preemergence): 0
Plant response rating, Kochia (kochia (Kochia scoparia); 31 g ai/ha Postemergence): 30
Plant response rating, Kochia (kochia (Kochia scoparia); 31 g ai/ha Preemergence): 0
Plant response rating, Kochia (kochia (Kochia scoparia); 62 g ai/ha Postemergence): 60
Plant response rating, Kochia (kochia (Kochia scoparia); 125 g ai/ha Postemergence): 75
Plant response rating, Kochia (kochia (Kochia scoparia); 125 g ai/ha Preemergence): 30
Plant response rating, Kochia (kochia (Kochia scoparia); Preemergence): 0
Plant response rating, Velvetleaf ([2]; 8 g ai/ha Preemergence): 20
Plant response rating, Velvetleaf ([2]; 16 g ai/ha Preemergence): 70
Plant response rating, Velvetleaf ([2]; 31 g ai/ha Preemergence): 100
Plant response rating, Velvetleaf ([2]; 125 g ai/ha Preemergence): 100
Plant response rating, Velvetleaf ([2]; Preemergence): 100
Plant response rating, Ryegrass, Italian ([3]; 8 g ai/ha Postemergence): 0
Plant response rating, Ryegrass, Italian ([3]; 8 g ai/ha Preemergence): 0
Plant response rating, Ryegrass, Italian ([3]; 16 g ai/ha Postemergence): 0
Plant response rating, Ryegrass, Italian ([3]; 16 g ai/ha Preemergence): 0
Plant response rating, Ryegrass, Italian ([3]; 31 g ai/ha Postemergence): 0
Plant response rating, Ryegrass, Italian ([3]; 31 g ai/ha Preemergence): 0
Plant response rating, Ryegrass, Italian ([3]; 62 g ai/ha Postemergence): 0
Plant response rating, Ryegrass, Italian ([3]; 125 g ai/ha Postemergence): 0
Plant response rating, Ryegrass, Italian ([3]; 125 g ai/ha Preemergence): 0
Plant response rating, Ryegrass, Italian ([3]; Preemergence): 0
Plant response rating, Nightshade ([4]; 8 g ai/ha Preemergence): 0
Plant response rating, Nightshade ([4]; 16 g ai/ha Preemergence): 65
Plant response rating, Nightshade ([4]; 31 g ai/ha Preemergence): 80
Plant response rating, Nightshade ([4]; 125 g ai/ha Preemergence): 98
Plant response rating, Nightshade ([4]; Preemergence): 90
Plant response rating, Beggarticks ([5]; 8 g ai/ha Postemergence): 40
Plant response rating, Beggarticks ([5]; 8 g ai/ha Preemergence): 0
Plant response rating, Beggarticks ([5]; 16 g ai/ha Postemergence): 40
Plant response rating, Beggarticks ([5]; 16 g ai/ha Preemergence): 0
Plant response rating, Beggarticks ([5]; 31 g ai/ha Postemergence): 50
Plant response rating, Beggarticks ([5]; 31 g ai/ha Preemergence): 0
Plant response rating, Beggarticks ([5]; 62 g ai/ha Postemergence): 50
Plant response rating, Beggarticks ([5]; 62 g ai/ha Preemergence): 10
Plant response rating, Beggarticks ([5]; 125 g ai/ha Postemergence): 65
Plant response rating, Beggarticks ([5]; 125 g ai/ha Preemergence): 20
Plant response rating, Field Bindweed ([6]; 8 g ai/ha Postemergence): 10
Plant response rating, Field Bindweed ([6]; 8 g ai/ha Preemergence): 0
Plant response rating, Field Bindweed ([6]; 16 g ai/ha Postemergence): 10
Plant response rating, Field Bindweed ([6]; 16 g ai/ha Preemergence): 0
Plant response rating, Field Bindweed ([6]; 31 g ai/ha Postemergence): 20
Plant response rating, Field Bindweed ([6]; 31 g ai/ha Preemergence): 0
Plant response rating, Field Bindweed ([6]; 62 g ai/ha Postemergence): 30
Plant response rating, Field Bindweed ([6]; 62 g ai/ha Preemergence): 0
Plant response rating, Field Bindweed ([6]; 125 g ai/ha Postemergence): 50
Plant response rating, Field Bindweed ([6]; 125 g ai/ha Preemergence): 0
Plant response rating, Lambsquarters ([7]; 16 g ai/ha Preemergence): 0
Plant response rating, Lambsquarters ([7]; 31 g ai/ha Preemergence): 65
Plant response rating, Lambsquarters ([7]; 125 g ai/ha Preemergence): 100
Plant response rating, Lambsquarters ([7]; Preemergence): 90
Plant response rating, Nutsedge, Yellow ([8]; 8 g ai/ha Preemergence): 0
Plant response rating, Nutsedge, Yellow ([8]; 16 g ai/ha Preemergence): 0
Plant response rating, Nutsedge, Yellow ([8]; 31 g ai/ha Preemergence): 0
Plant response rating, Nutsedge, Yellow ([8]; 125 g ai/ha Preemergence): 0
Plant response rating, Nutsedge, Yellow ([8]; Preemergence): 0

Fc1ccc(Oc2ncc(Cl)cn2)c(-c2cc(C(F)F)on2)c1Cl [Compound 96]
Plant response rating, Goosegrass ([1]; 16 g ai/ha Preemergence): 50
Plant response rating, Goosegrass ([1]; 31 g ai/ha Preemergence): 40
Plant response rating, Goosegrass ([1]; 125 g ai/ha Preemergence): 60
Plant response rating, Goosegrass ([1]; Preemergence): 40
Plant response rating, Kochia (kochia (Kochia scoparia); 16 g ai/ha Postemergence): 65
Plant response rating, Kochia (kochia (Kochia scoparia); 16 g ai/ha Preemergence): 0
Plant response rating, Kochia (kochia (Kochia scoparia); 31 g ai/ha Postemergence): 75
Plant response rating, Kochia (kochia (Kochia scoparia); 31 g ai/ha Preemergence): 0
Plant response rating, Kochia (kochia (Kochia scoparia); 62 g ai/ha Postemergence): 75
Plant response rating, Kochia (kochia (Kochia scoparia); 125 g ai/ha Postemergence): 95
Plant response rating, Kochia (kochia (Kochia scoparia); 125 g ai/ha Preemergence): 90
Plant response rating, Kochia (kochia (Kochia scoparia); Preemergence): 65
Plant response rating, Velvetleaf ([2]; 16 g ai/ha Preemergence): 0
Plant response rating, Velvetleaf ([2]; 31 g ai/ha Preemergence): 60
Plant response rating, Velvetleaf ([2]; 125 g ai/ha Preemergence): 80
Plant response rating, Velvetleaf ([2]; Preemergence): 80
Plant response rating, Ryegrass, Italian ([3]; 16 g ai/ha Postemergence): 0
Plant response rating, Ryegrass, Italian ([3]; 16 g ai/ha Preemergence): 0
Plant response rating, Ryegrass, Italian ([3]; 31 g ai/ha Postemergence): 0
Plant response rating, Ryegrass, Italian ([3]; 31 g ai/ha Preemergence): 0
Plant response rating, Ryegrass, Italian ([3]; 62 g ai/ha Postemergence): 0
Plant response rating, Ryegrass, Italian ([3]; 125 g ai/ha Postemergence): 10
Plant response rating, Ryegrass, Italian ([3]; 125 g ai/ha Preemergence): 30
Plant response rating, Ryegrass, Italian ([3]; Preemergence): 30
Plant response rating, Nightshade ([4]; 16 g ai/ha Preemergence): 0
Plant response rating, Nightshade ([4]; 31 g ai/ha Preemergence): 0
Plant response rating, Nightshade ([4]; 125 g ai/ha Preemergence): 90
Plant response rating, Nightshade ([4]; Preemergence): 65
Plant response rating, Beggarticks ([5]; 16 g ai/ha Postemergence): 0
Plant response rating, Beggarticks ([5]; 16 g ai/ha Preemergence): 0
Plant response rating, Beggarticks ([5]; 31 g ai/ha Postemergence): 30
Plant response rating, Beggarticks ([5]; 31 g ai/ha Preemergence): 0
Plant response rating, Beggarticks ([5]; 62 g ai/ha Postemergence): 40
Plant response rating, Beggarticks ([5]; 62 g ai/ha Preemergence): 0
Plant response rating, Beggarticks ([5]; 125 g ai/ha Postemergence): 40
Plant response rating, Beggarticks ([5]; 125 g ai/ha Preemergence): 20
Plant response rating, Field Bindweed ([6]; 16 g ai/ha Postemergence): 5
Plant response rating, Field Bindweed ([6]; 16 g ai/ha Preemergence): 0
Plant response rating, Field Bindweed ([6]; 31 g ai/ha Postemergence): 10
Plant response rating, Field Bindweed ([6]; 31 g ai/ha Preemergence): 0
Plant response rating, Field Bindweed ([6]; 62 g ai/ha Postemergence): 20
Plant response rating, Field Bindweed ([6]; 62 g ai/ha Preemergence): 60
Plant response rating, Field Bindweed ([6]; 125 g ai/ha Postemergence): 50
Plant response rating, Field Bindweed ([6]; 125 g ai/ha Preemergence): 40
Plant response rating, Lambsquarters ([7]; 16 g ai/ha Preemergence): 5
Plant response rating, Lambsquarters ([7]; 31 g ai/ha Preemergence): 100
Plant response rating, Lambsquarters ([7]; 125 g ai/ha Preemergence): 100
Plant response rating, Lambsquarters ([7]; Preemergence): 100
Plant response rating, Nutsedge, Yellow ([8]; 16 g ai/ha Preemergence): 0
Plant response rating, Nutsedge, Yellow ([8]; 31 g ai/ha Preemergence): 0
Plant response rating, Nutsedge, Yellow ([8]; 125 g ai/ha Preemergence): 0
Plant response rating, Nutsedge, Yellow ([8]; Preemergence): 0

CC(F)(F)c1cc(-c2ccccc2Oc2ncc(Br)cn2)no1 [Compound 149]
Plant response rating, Goosegrass ([1]; 16 g ai/ha Preemergence): 0
Plant response rating, Goosegrass ([1]; 31 g ai/ha Preemergence): 0
Plant response rating, Goosegrass ([1]; 125 g ai/ha Preemergence): 60
Plant response rating, Goosegrass ([1]; Preemergence): 40
Plant response rating, Kochia (kochia (Kochia scoparia); 16 g ai/ha Postemergence): 60
Plant response rating, Kochia (kochia (Kochia scoparia); 16 g ai/ha Preemergence): 0
Plant response rating, Kochia (kochia (Kochia scoparia); 31 g ai/ha Postemergence): 80
Plant response rating, Kochia (kochia (Kochia scoparia); 31 g ai/ha Preemergence): 0
Plant response rating, Kochia (kochia (Kochia scoparia); 62 g ai/ha Postemergence): 90
Plant response rating, Kochia (kochia (Kochia scoparia); 125 g ai/ha Postemergence): 95
Plant response rating, Kochia (kochia (Kochia scoparia); 125 g ai/ha Preemergence): 90
Plant response rating, Kochia (kochia (Kochia scoparia); Preemergence): 75
Plant response rating, Velvetleaf ([2]; 16 g ai/ha Preemergence): 10
Plant response rating, Velvetleaf ([2]; 31 g ai/ha Preemergence): 70
Plant response rating, Velvetleaf ([2]; 125 g ai/ha Preemergence): 100
Plant response rating, Velvetleaf ([2]; Preemergence): 85
Plant response rating, Ryegrass, Italian ([3]; 16 g ai/ha Postemergence): 0
Plant response rating, Ryegrass, Italian ([3]; 16 g ai/ha Preemergence): 0
Plant response rating, Ryegrass, Italian ([3]; 31 g ai/ha Postemergence): 10
Plant response rating, Ryegrass, Italian ([3]; 31 g ai/ha Preemergence): 0
Plant response rating, Ryegrass, Italian ([3]; 62 g ai/ha Postemergence): 10
Plant response rating, Ryegrass, Italian ([3]; 125 g ai/ha Postemergence): 5
Plant response rating, Ryegrass, Italian ([3]; 125 g ai/ha Preemergence): 40
Plant response rating, Ryegrass, Italian ([3]; Preemergence): 20
Plant response rating, Nightshade ([4]; 16 g ai/ha Preemergence): 0
Plant response rating, Nightshade ([4]; 31 g ai/ha Preemergence): 80
Plant response rating, Nightshade ([4]; 125 g ai/ha Preemergence): 100
Plant response rating, Nightshade ([4]; Preemergence): 98
Plant response rating, Beggarticks ([5]; 16 g ai/ha Postemergence): 5
Plant response rating, Beggarticks ([5]; 16 g ai/ha Preemergence): 0
Plant response rating, Beggarticks ([5]; 31 g ai/ha Postemergence): 30
Plant response rating, Beggarticks ([5]; 31 g ai/ha Preemergence): 0
Plant response rating, Beggarticks ([5]; 62 g ai/ha Postemergence): 40
Plant response rating, Beggarticks ([5]; 62 g ai/ha Preemergence): 0
Plant response rating, Beggarticks ([5]; 125 g ai/ha Postemergence): 50
Plant response rating, Beggarticks ([5]; 125 g ai/ha Preemergence): 0
Plant response rating, Field Bindweed ([6]; 16 g ai/ha Postemergence): 60
Plant response rating, Field Bindweed ([6]; 16 g ai/ha Preemergence): 0
Plant response rating, Field Bindweed ([6]; 31 g ai/ha Postemergence): 50
Plant response rating, Field Bindweed ([6]; 31 g ai/ha Preemergence): 50
Plant response rating, Field Bindweed ([6]; 62 g ai/ha Postemergence): 50
Plant response rating, Field Bindweed ([6]; 62 g ai/ha Preemergence): 35
Plant response rating, Field Bindweed ([6]; 125 g ai/ha Postemergence): 75
Plant response rating, Field Bindweed ([6]; 125 g ai/ha Preemergence): 25
Plant response rating, Lambsquarters ([7]; 31 g ai/ha Preemergence): 0
Plant response rating, Lambsquarters ([7]; 125 g ai/ha Preemergence): 100
Plant response rating, Lambsquarters ([7]; Preemergence): 100
Plant response rating, Nutsedge, Yellow ([8]; 16 g ai/ha Preemergence): 0
Plant response rating, Nutsedge, Yellow ([8]; 31 g ai/ha Preemergence): 0
Plant response rating, Nutsedge, Yellow ([8]; 125 g ai/ha Preemergence): 15
Plant response rating, Nutsedge, Yellow ([8]; Preemergence): 0
